Publication PMC9939733 (The Journal of Biological Chemistry, 2023)
Residue numbers refer to the chain shown, from its start. Several values for one entry are separate records, joined by “and”; a condition that tells them apart may be missing. Identical values can stand only once. Counter-ions that a name gives are not always drawn.

Tests used:
Type in all cases: biochemical
R140Q IDH2 [1] = target: T1, R140Q IDH2 (Homo sapiens, UniProt P48735, R140Q); experiment: Absorbance assay (NADPH consumption), substrate turnover in the absence of 2OG
T1 construct: made in house; host or cells: Sf21 insect cells (cell pellets prepared at Evotec)
T1 sequence (P48735 40-452 R140Q): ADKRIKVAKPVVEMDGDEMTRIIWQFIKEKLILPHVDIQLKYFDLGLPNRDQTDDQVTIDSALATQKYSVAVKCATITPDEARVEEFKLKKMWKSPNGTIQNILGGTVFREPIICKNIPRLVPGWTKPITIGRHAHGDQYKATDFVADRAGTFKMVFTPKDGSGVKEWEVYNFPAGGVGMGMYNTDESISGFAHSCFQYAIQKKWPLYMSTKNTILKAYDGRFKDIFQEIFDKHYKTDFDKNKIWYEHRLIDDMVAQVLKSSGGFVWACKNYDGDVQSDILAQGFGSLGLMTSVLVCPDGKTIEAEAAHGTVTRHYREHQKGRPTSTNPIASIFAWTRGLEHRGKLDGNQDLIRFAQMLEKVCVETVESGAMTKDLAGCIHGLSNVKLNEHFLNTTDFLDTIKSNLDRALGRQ
Experimental: (§1) Compounds were dispensed using a CyBio SDW-CW CyBi-Well Simultaneous Pipettor and assay started using a ThermoFisher Multidrop Combi reagent dispenser.
(§2) Reactions were performed as technical quadruplicates.

R172K IDH2 [2] = target: T2, R172K IDH2 (Homo sapiens, UniProt P48735, R172K); experiment: as above
T2 construct: made in house; host or cells: Sf21 insect cells (cell pellets prepared at Evotec)
T2 sequence (P48735 40-452 R172K): T1 sequence (P48735 40-452 R140Q) with Q101R, R133K
Experimental: as §1, §2

WT IDH1 [3] = target: T3, WT IDH1 (Homo sapiens, UniProt O75874); experiment: Absorbance assay, WT activity in the presence of equimolar DL-isocitrate (inhibition)
T3 construct: made in house; host or cells: Escherichia coli BL21(DE3) pLyS
T3 sequence (O75874 whole entry): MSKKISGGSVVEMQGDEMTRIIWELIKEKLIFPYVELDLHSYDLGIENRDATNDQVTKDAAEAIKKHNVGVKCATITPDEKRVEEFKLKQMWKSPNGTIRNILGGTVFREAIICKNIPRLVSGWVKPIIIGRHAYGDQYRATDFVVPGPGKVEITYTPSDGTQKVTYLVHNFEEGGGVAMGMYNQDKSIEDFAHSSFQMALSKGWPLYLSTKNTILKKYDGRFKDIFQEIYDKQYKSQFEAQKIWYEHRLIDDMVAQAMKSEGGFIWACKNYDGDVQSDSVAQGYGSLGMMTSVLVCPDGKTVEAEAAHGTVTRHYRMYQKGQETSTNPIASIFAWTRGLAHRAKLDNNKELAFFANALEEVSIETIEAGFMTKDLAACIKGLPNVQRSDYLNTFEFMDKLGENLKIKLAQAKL
Outline: (§3)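 Quadruplicate technical repeats are run. Reaction start is by reagent dispenser.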

WT IDH2 [4] = target: T4, WT IDH2 (Homo sapiens, UniProt P48735); experiment: as above
T4 construct: made in house; host or cells: Sf21 insect cells (cell pellets prepared at Evotec)
T4 sequence (P48735 40-452): T1 sequence (P48735 40-452 R140Q) with Q101R
Outline: as §3

WT IDH1 [5] = target: T3, WT IDH1; experiment: Absorbance assay, substrate activity in the absence of DL-isocitrate
Outline: as §3

WT IDH2 [6] = target: T4, WT IDH2; experiment: as above
Outline: as §3

R132H IDH1 [7] = target: T5, R132H IDH1 (Homo sapiens, UniProt O75874, R132H); experiment: Absorbance assay (NADPH consumption), substrate turnover in the absence of 2OG; parameters: made in house; host or cells: Escherichia coli BL21(DE3) pLyS
T5 sequence (O75874 whole entry R132H): as the sequence (O75874 whole entry) above, with R132H counted along it
Experimental: as §1, §2

R132H IDH1 [8] = target: T5, R132H IDH1; experiment: Absorbance assay, variant activity in the presence of equimolar 2OG (inhibition screen); parameters: made in house; host or cells: Escherichia coli BL21(DE3) pLyS
Outline: as §3

R140Q IDH2 [9] = target: T1, R140Q IDH2; experiment: as above
Outline: as §3

R172K IDH2 [10] = target: T2, R172K IDH2; experiment: as above
Outline: as §3

[11] = no 2OG, 6.0 mM test compound, 0.03 μM R140Q IDH2, 50 μM NADPH, 2OG = 100
[12] = no 2OG, 1.0 mM test compound, 0.03 μM R172K IDH2, 50 μM NADPH, 2OG = 100
[13] = […] isocitrate and […] test compound, 75 μM NADP+, 2.0 nM WT IDH1
[14] = […] isocitrate and […] test compound, 75 μM NADP+, 2.0 nM WT IDH2
[15] = no DL-isocitrate, […] test compound, 75 μM NADP+, 2.0 nM WT IDH1, compared to DL-isocitrate
[16] = no DL-isocitrate, […] test compound, 75 μM NADP+, 2.0 nM WT IDH2, compared to DL-isocitrate
[17] = no 2OG, […] test compound, 0.03 μM R132H IDH1, 50 μM NADPH, 2OG = 100
[18] = […] 2OG and […] test compound, 0.03 μM R132H IDH1, 50 μM NADPH
[19] = 6.0 mM 2OG and 6.0 mM test compound, 0.03 μM R140Q IDH2, 50 μM NADPH
[20] = 1.0 mM 2OG and 1.0 mM test compound, 0.03 μM R172K IDH2, 50 μM NADPH

activity [%] (%-substrate conversion after 20 min incubation) (R140Q IDH2 [1]; [11])	activity [%] (%-substrate conversion after 20 min incubation) (R172K IDH2 [2]; [12])	activity [%] (%-substrate conversion after 20 min incubation) (WT IDH1 [3]; [13])	activity [%] (%-substrate conversion after 20 min incubation) (WT IDH2 [4]; [14])	activity [%] (%-substrate conversion after 20 min incubation) (WT IDH1 [5]; [15])	activity [%] (%-substrate conversion after 20 min incubation) (WT IDH2 [6]; [16])	activity [%] (%-substrate conversion after 20 min incubation) (R132H IDH1 [7]; [17])	activity [%] (%-substrate conversion after 20 min incubation) (R132H IDH1 [8]; [18])	activity [%] (%-substrate conversion after 20 min incubation) (R140Q IDH2 [9]; [19])	activity [%] (%-substrate conversion after 20 min incubation) (R172K IDH2 [10]; [20])	SMILES	activity [%] (%-substrate conversion after 20 min incubation) (R140Q IDH2 [1])	activity [%] (%-substrate conversion after 20 min incubation) (R172K IDH2 [2])	activity [%] (%-substrate conversion after 20 min incubation) (WT IDH1 [3])	activity [%] (%-substrate conversion after 20 min incubation) (WT IDH2 [4])	activity [%] (%-substrate conversion after 20 min incubation) (WT IDH1 [5])	activity [%] (%-substrate conversion after 20 min incubation) (WT IDH2 [6])	activity [%] (%-substrate conversion after 20 min incubation) (R132H IDH1 [7])	activity [%] (%-substrate conversion after 20 min incubation) (R132H IDH1 [8])	activity [%] (%-substrate conversion after 20 min incubation) (R140Q IDH2 [9])	activity [%] (%-substrate conversion after 20 min incubation) (R172K IDH2 [10])
< 10	< 10	101 ± 1	99 ± 2	< 10	< 10	< 10	95 ± 2	110 ± 9	100 ± 5	C[C@@](O)(CC(=O)O)C(=O)O [(R)-citramalic acid]	–	–	–	–	–	–	–	–	–	–
< 10	< 10	103 ± 1	99 ± 1	< 10	< 10	< 10	100 ± 2	110 ± 3	99 ± 5	CC(C(=O)O)C(C)C(=O)O (stereo not shown) [1,2-dimethylsuccinic acid]	–	–	–	–	–	–	–	–	–	–
< 10	< 10	105 ± 2	100 ± 1	< 10	< 10	< 10	99 ± 2	117 ± 3	102 ± 7	NC(=O)C(=O)O [oxamic acid]	–	–	–	–	–	–	–	–	–	–
< 10	< 10	100 ± 1	100 ± 2	< 10	< 10	< 10	103 ± 4	117 ± 11	98 ± 4	O=C(O)CC(=O)O [malonic acid]	–	–	–	–	–	–	–	–	–	–
< 10	< 10	102 ± 2	98 ± 1	< 10	< 10	< 10	90 ± 4	98 ± 4	92 ± 6	COC(=O)/C=C/C(=O)O [mono-methyl fumarate]	–	–	–	–	–	–	–	–	–	–
< 10	< 10	105 ± 6	95 ± 5	< 10	< 10	< 10	104 ± 8	115 ± 9	100 ± 8	CC(O)C(=O)O (racemic) [DL-lactic acid]	–	–	–	–	–	–	–	–	–	–
< 10	< 10	100 ± 1	98 ± 2	< 10	< 10	< 10	106 ± 2	110 ± 3	96 ± 8	O=C(O)CC(=O)C(=O)O [oxaloacetic acid]	–	–	–	–	–	–	–	–	–	–
–	–	–	–	–	–	–	–	–	–	O=C1CC(C(=O)O)C(C(=O)O)O1 (racemic) [DL-isocitric acid lactone]	< 10	< 10	105 ± 2	106 ± 2	~10% and 12 ± 4%	~10% and 11 ± 1%	< 10	99 ± 2	118 ± 18	95 ± 3
< 10	< 10	103 ± 2	99 ± 3	< 10	< 10	< 10	104 ± 3	115 ± 12	102 ± 9	CC(CC(=O)O)C(=O)O (racemic) [DL-2-methylsuccinic acid]	–	–	–	–	–	–	–	–	–	–

SMILES	activity [%] (%-substrate conversion after 20 min incubation) (R140Q IDH2 [1]; [11])	activity [%] (%-substrate conversion after 20 min incubation) (R172K IDH2 [2]; [12])	activity [%] (%-substrate conversion after 20 min incubation) (WT IDH1 [3]; [13])	activity [%] (%-substrate conversion after 20 min incubation) (WT IDH2 [4]; [14])	activity [%] (%-substrate conversion after 20 min incubation) (WT IDH1 [5]; [15])	activity [%] (%-substrate conversion after 20 min incubation) (WT IDH2 [6]; [16])	activity [%] (%-substrate conversion after 20 min incubation) (R132H IDH1 [7]; [17])	activity [%] (%-substrate conversion after 20 min incubation) (R132H IDH1 [8]; [18])	activity [%] (%-substrate conversion after 20 min incubation) (R140Q IDH2 [9]; [19])	activity [%] (%-substrate conversion after 20 min incubation) (R172K IDH2 [10]; [20])	activity [%] (%-substrate conversion after 20 min incubation) (R140Q IDH2 [1])	activity [%] (%-substrate conversion after 20 min incubation) (R172K IDH2 [2])	activity [%] (%-substrate conversion after 20 min incubation) (WT IDH1 [3])	activity [%] (%-substrate conversion after 20 min incubation) (WT IDH2 [4])	activity [%] (%-substrate conversion after 20 min incubation) (WT IDH1 [5])	activity [%] (%-substrate conversion after 20 min incubation) (WT IDH2 [6])	activity [%] (%-substrate conversion after 20 min incubation) (R132H IDH1 [7])	activity [%] (%-substrate conversion after 20 min incubation) (R132H IDH1 [8])	activity [%] (%-substrate conversion after 20 min incubation) (R140Q IDH2 [9])	activity [%] (%-substrate conversion after 20 min incubation) (R172K IDH2 [10])
C=C(CC(=O)O)C(=O)O [itaconic acid]	< 10	< 10	99 ± 1	99 ± 2	< 10	< 10	< 10	92 ± 2	96 ± 3	95 ± 7	–	–	–	–	–	–	–	–	–	–
